Columns and labels:
[1] = test system: hES cells; assay: GCTM-2 quantification (alkaline phosphatase-coupled secondary antibody, OD 405 nm); type: cell-based, human; details: for effect of inhibitor on the effect of PDGF and S1P on GCTM2 expression: 7 days, U0126, DMS 3 μM; for more GCMT2+ than the control cells / GCTM2 levels, PDGF isoform added with S1P: Example 1; for more GCMT2+ than the control cells: on MEF, 8 days, S1P 10 μM; for more GCMT2+ than the control cells / more GCMT2+ than the controls: serum-free; for more GCMT2+ than the controls: treated for 2 weeks
From the text: hES-3 cells plated with MEF, were fixed in ethanol and immunostained with GCTM-2 and then with an alkaline phosphatase-coupled secondary antibody (Dako). The activity of alkaline phosphatase was detected by adding a solution of 4-nitrophenyl phosphate (Roche, Mannheim, Germany), followed by reading the optical density (OD) at 405 nm. In order to validate the technique as a relevant indicator of the proportion of GCTM-2 positive cells, standard curves were done with the teratocarcinoma cell line GCT27C4, known to express GCTM-2.
Cells were fixed in 100% ethanol and immunostained with GCTM-2 followed by alkaline phosphatase-coupled secondary antibodies (Dako). Alkaline phosphatase activity was detected by adding a solution of 4-nitrophenyl phosphate (Roche), and the concentration of the reaction product was determined by reading the optical density (OD) at 405 nm. In order to validate the technique as an accurate indicator of the proportion of GCTM-2 positive cells, standard curves were carried out with the embryonal carcinoma cell line GCT27C4, known to express GCTM-2 ^20.

[2] = test system: ERK1/2 (Erk1 and Erk2); assay: ERKs phosphorylation in hES cells (Western blot, anti-active MAP kinase); type: cell-based, human; details: for phosphorylation of ERKs in hES cells: 5 min incubation, LPA, PDGF 20 ng/ml, serum-depleted, without MEF
Description: hES-3 cells plated without MEF for 24 hrs were depleted of serum for a further 18 hrs. Cells pre-treated or not with U0126 (Sigma, 30 μM, 1 hr), were incubated in the presence of the different agents for 5 min and were lysed by removal of the supernatants and addition of a reducing loading buffer containing 1 mM sodium orthovanadate (Sigma). Protein lysates (approx. 80 μg) were separated by SDS-polyacrylamide gel electrophoresis (10% polyacrylamide, w/v), transferred to nitrocellulose (Hybond-nitrocellulose, Amersham) and immunoblotting was carried out using rabbit polyclonal anti-active mitogen-activated protein (MAPK) antibodies raised against a dually phosphorylated MAPK peptide (Promega, Madison, Wis., USA). Peroxidase-coupled secondary antibody (Dako) was detected by exposure of autoradiographic films in the presence of a chemiluminescent detection reagent (ECL, Amersham). Stripping of antibodies was achieved and membranes were then reprobed with rabbit polyclonal anti-ERK1/2 antibodies (Promega), and then with peroxidase-coupled secondary antibodies (Dako). Membranes probed with either rabbit polyclonal anti-active p38 (Promega) or rabbit polyclonal anti-active JNK (Promega) antibodies were also performed, using the same procedure as described
For immunoblot analysis, cells were transferred into 24 well plates (8 colonies per well) without MEFs, and 24 hr later, were grown in the absence of serum for 18 hrs.
In some experiments, cells were pre-treated for 1 hr with U0126 (30 μM) or for 18 hrs with PTX (100 μg/ml).
hES3 cells were lysed following removal of the supernatants by addition of a reducing loading buffer (2% SDS, 62.5 mM Tris pH 6.8, 0.1 M DTT, 0.01% bromophenol blue) containing 1 mM sodium orthovanadate. Samples were boiled for 10 min and centrifuged at 13000 g for 15 min, and protein lysates (approx. 80 μg) were separated by SDS-polyacrylamide gel electrophoresis (10% polyacrylamide, w/v). Proteins were transferred to nitrocellulose (Hybond-ECL, Amersham) and immunoblotting was carried out with rabbit polyclonal anti-active mitogen-activated protein (MAPK) antibodies raised against a dually phosphorylated MAPK peptide (Promega, Madison, Wis., USA). Peroxidase-coupled secondary antibody (Dako) was detected by exposure of autoradiographic films in the presence of a chemiluminescent detection reagent (ECL, Amersham). Stripping of antibodies was achieved by incubating the membrane during 30 min at 50° C. in a buffer containing 100 mM mercaptoethanol, 2% SDS, 62.5 mM Tris-HCl pH 6.7. The membrane was then reprobing with rabbit polyclonal anti-ERK1/2 antibodies (Promega), and then with peroxidase-coupled secondary antibodies (Dako).

[3] = test system: hES cells; assay: GCTM-2 / PCNA double immunostaining and cell counting of mechanically dissociated hES cells; type: cell-based, human; details: for percentage of cells GCTM2+: mechanically dissociated, PDGF 10 ng/ml
Description: In some experiments, hES-3 cells plated onto 8-well chamber slides, with or without MEF, were fixed in ethanol or paraformaldehyde (for PDGFR) the day after plating. In others, hES-3 cells were mechanically dissociated, in order to obtain a monolayer culture and then plated onto 8-well chamber slides without MEF and were fixed in ethanol 4 days after the first treatment. Immunostaining was performed using the following antibodies: anti human PDGFR-α or PDGFR-β(R&D Systems Inc.), GCTM-2, and/or PCNA (Chemicon, Boronia, VIC, Australia), TRA-1-60, Oct-4. Nuclei were evidenced by Hoechst-33342. Slides were mounted and observed by fluorescent microscopy with a Leica microscope at X10, X20 and X40. Specificity was verified by the absence of any staining in the negative controls. In some experiments, cells were counted to determine the ratio of cells within the global population.
For immunostaining, hES-3 cells were coated on chamber slides after mechanical dissociation, in order to obtain a monolayer culture. The day following the plating, cells were incubated with the different agents in a media depleted in serum. Media was changed the 2nd day and the cells were fixed 4 days after the first treatment.
Cells were washed in PBS, fixed with MeOH, and immunostaining was performed, using the specific stem cell marker antibody GCTM-2, and the specific cell proliferation marker PCNA. Cells were then washed and the nucleuses were stained with Hoechst-33342 (1 μg/ml). Slides were mounted and then observed by fluorescent microscopy. Cells were then counted in order to determine the ratio of proliferating stem cells within the overall population.

[4] = test system: hES cells; assay: Direct observation of hES cell colonies in serum-free medium (spontaneous differentiation); type: cell-based, human; details: for colony morphology / spontaneous differentiation vs control: Example 1, PDGF 20 ng/ml; for colony morphology / spontaneous differentiation vs control / colony size, morphology / spontaneous differentiation vs controls: on MEF, serum-free; for colony morphology / spontaneous differentiation vs control / colony size, morphology / spontaneous differentiation vs controls / colony growth / differentiation vs control: LPA up to 50 μM; for colony size, morphology / spontaneous differentiation vs controls: Example 2, 2 weeks, PDGF-AB 20 ng/ml; for colony growth / differentiation vs control: 12 days
Description: (§1) hES-3 cells were cultured as previously described^1. The serum-free culture medium consisted of DMEM (without sodium pyruvate, glucose 4500 mg/l, Invitrogen, Mount Waverley, VIC, Australia) supplemented with insulin/transferrin/selenium 1%, β-mercaptoethanol 0.1 mM, NEAA 1%, glutamine 2 mM, Hepes 25 mM, penicillin 50 U/ml and streptomycin […] (all from Invitrogen). Medium was changed every 2 days and cells were passaged every week. S1P and dihydro-S1P were obtained from Biomol (Plymouth Meeting, Pa., USA) and were dissolved in methanol. LPA was obtained from Sigma (Castle Hill, NSW, Australia) and was dissolved in ethanol. Extemporaneous dilutions of all lipids were made in water containing 0.1% fatty acid-free bovine serum albumin (BSA) (Sigma). Human PDGF-AB, PDGF-AA, PDGF-BB were from PreproTech Inc. (Rocky Hill, N.J., USA). RT-PCR Experiments.
as §1, with “Media” for “Medium”, “USA).” for “USA) and were dissolved in methanol.”, “Australia).” for “Australia) and was dissolved in ethanol.”, “(Sigma). S1P and dihydro-S1P were used at […].” for “(Sigma).”, “USA) and were used at 20 ng/ml.” for “USA). RT-PCR Experiments.”
For direct observation, hES-3 cells were coated into 12-well plates (3 colonies per well), with or without mouse embryonic feeders (MEFs). The day following the plating, cells were incubated with the different agents in serum free medium containing insulin, transferring and selenium. Media was changed the 2nd day and then every 2 days.

[5] = test system: SPK activity in hES cells; assay: Sphingosine kinase activity in hES cells after incubation with PDGF; type: cell-based, human; details: PDGF 20 ng/ml
Description: hES-3 cells plated without MEF for 24 hr and depleted of serum for a further 18 hr were incubated in the presence of PDGF (20 ng/ml) for various time periods and were harvested and lysed by sonication (2 W for 30 s at 4° C.) in lysis buffer containing 50 mM Tris/HCl (pH 7.4), 10% glycerol, 0.05% Triton X-100, 150 mM NaCl, 1 mM dithiothreitol, 2 mM Na3VO4, 10 mM NaF, 1 mM EDTA and protease inhibitors (Complete™, Roche, Mannheim, Germany). SPK activity was determined using D-erythro-sphingosine and […] as substrates, as previously described^19. Protein concentrations in cell homogenates were determined with Coomassie Brilliant Blue reagent (Bio-Rad, Regent Park, NSW, Australia) using bovine serum albumin as standard.

[6] = test system: SPK in MEF; assay: Sphingosine kinase activity in MEF after incubation with PDGF; type: cell-based, mouse; details: PDGF 20 ng/ml
[7] = Example 1, 4 days, no MEF, no serum, S1P 10 μM
[8] = Example 1, 4 days, no MEF, no serum
[9] = Example 4, on MEFs, serum-depleted, S1P 10 μM

## CCCCCCCCCCCCC/C=C/[C@@H](O)[C@H](CO)N(C)C [DMS, dimethylsphingosine]
[1]
  effect of inhibitor on the effect of PDGF and S1P on GCTM2 expression: inhibited the effect of PDGF and S1P

## CCCCCCCCCCCCC/C=C/[C@@H](O)[C@@H](N)COP(=O)(O)O [S1P, sphingosine-1-phosphate]
[2]; 5 min, various concentrations of S1P
  concentration dependence of ERKs stimulation: in a concentration dependant manner
[2]; S1P 10 μM
  phosphorylation of ERKs in hES cells: stimulated the phosphorylation of ERKs
  duration of ERKs stimulation: at least 60 min
[3]; [7]
  percentage of cells GCTM2+: 47.9±3.8%
[3]; [8]
  proliferating rate of hES cells (PCNA) vs control: no statistically significant difference
[3]; Example 4, 4 days without serum, S1P 10 μM
  proliferating rate of hES cells (PCNA) vs control: no marked difference
[3]; Example 4, 4 days without serum, S1P 10 μM (control 16%)
  cells GCTM-2 positive: 68%
[4]; 8 days, S1P 10 μM
  colony morphology / spontaneous differentiation vs control: the colonies appeared flatter and less differentiated
[4]; S1P 10 μM
  colony size, morphology / spontaneous differentiation vs controls: the colonies appeared flatter and less differentiated
[4]; Example 4, on MEFs, serum-depleted, 8 days, S1P 10 μM
  colony morphology / differentiation vs control condition: the colonies were more compact and less differentiated
[4]; [9]
  colony growth / differentiation vs control: more obvious after 12 days of treatment
[4]; Example 4
  effect on cell differentiation, hES cells grown without MEFs: inhibitory effect
[1]; PDGF 20 ng/ml
  more GCMT2+ than the control cells: 16.6±4.1%
[1]; Example 2
  more GCMT2+ than the controls: 18.0±17.0%

## N#CC(=C(/N)Sc1ccccc1N)/C(C#N)=C(\N)Sc1ccccc1N [U0126]
[2]; U0126 30 μM, 1 hr pre-treatment
  effect of MEK inhibitor on agonist-stimulated phosphorylation of ERKs: totally inhibited
[1]
  effect of inhibitor on the effect of PDGF and S1P on GCTM2 expression: totally inhibited

## CCCCCCCCCCCCCCC[C@@H](O)[C@@H](N)COP(=O)(O)O [dihydro-S1P, dihydrosphingosine-1-phosphate]
[1]; Example 2, 2 weeks, dihydro-S1P, PDGF 20 ng/ml
  GCTM2 expression: 223.0±27.0 % of control

## PDGF-AA: Human platelet-derived growth factor isoform AA; only binds to PDGFR-a
[1]
  GCTM2 levels, PDGF isoform added with S1P: 120.5±4.5 % of control
[1]; Example 2, 2 weeks, isoform 20 ng/ml together with S1P
  GCTM2 expression, PDGF isoform with S1P: 220.3±49.0 % of control

## PDGF: Human platelet-derived growth factor, isoform AB, from PreproTech; ligand of class III tyrosine kinase receptor
[5]
  duration of enhanced SPK activity: at least 60 min
[5]; after 30 min of incubation
  SPK activity relative to basal values: 1.6 fold
[6]
  activation of SPK in MEF: did not induce a significant statistical activation of SPK
[2]; S1P 10 μM
  phosphorylation of ERKs in hES cells: stimulated the phosphorylation of ERKs
[3]; [7]
  percentage of cells GCTM2+: 53.7±13.2%
[3]; [8]
  proliferating rate of hES cells (PCNA) vs control: no statistically significant difference
[4]; 8 days, S1P 10 μM
  colony morphology / spontaneous differentiation vs control: the colonies appeared flatter and less differentiated
[4]; S1P 10 μM
  colony size, morphology / spontaneous differentiation vs controls: the colonies appeared flatter and less differentiated
[1]
  GCTM2 levels, PDGF isoform added with S1P: 125.7±9.7 % of control
[1]; PDGF 20 ng/ml
  more GCMT2+ than the control cells: 16.6±7.0%
[1]; Example 2
  more GCMT2+ than the controls: 50.3±18.4%

## lysophosphatidic acid [LPA]
[2]; S1P 10 μM
  phosphorylation of ERKs in hES cells: stimulated the phosphorylation of ERKs
[4]; 8 days, S1P 10 μM
  colony morphology / spontaneous differentiation vs control: did not have an obvious effect on growth of the colonies
[4]; S1P 10 μM
  colony size, morphology / spontaneous differentiation vs controls: no obvious effect on size or morphology of hES cell colonies
[4]; [9]
  colony growth / differentiation vs control: did not seem to affect the growth of the colonies
[4]; Example 4
  effect on cell differentiation, hES cells grown without MEFs: lack of effect

From patent publication US7413903B2, “Methods of regulating differentiation in stem cells” (ES Cell International PTE Ltd., priority 2002, dated 2008)
